Source: ChEMBL document CHEMBL1122751, “Structure-activity relationships of phenytoin-like anticonvulsant drugs” (1984)

What follows are compounds tested on Mus musculus (assay: Antiepileptic potency in the maximal electroshock seizure test. Compound was administered orally to male NMRI mice). Conditions: po.
Type: functional
For `O=C1CC(c2ccccc2)(c2ccccc2)C(=O)N1`, the ED50 was 107 µmol/kg.
`O=C1NC(=O)C(c2ccccc2)(c2ccccc2)N1` [PHENYTOIN] showed an ED50 of 28 µmol/kg.
For `CC1CC(c2ccccc2)(c2ccccc2)C(=O)N1C` (stereo unspecified), the ED50 was 3830 µmol/kg.
Work on `CN1C(=O)CC(c2ccccc2)(c2ccccc2)C1=O` yielded an ED50 of 357 µmol/kg.
Work on `CN1C(=O)NC(c2ccccc2)(c2ccccc2)C1=O` yielded an ED50 of 149 µmol/kg.
With `O=C1NCNC1(c1ccccc1)c1ccccc1` [DOXENITOIN] the ED50 was 129 µmol/kg.
